Measured values taken from article PMC7730182, “Synthesis and in Silico Modelling of the Potential Dual Mechanistic Activity of Small Cationic Peptides Potentiating the Antibiotic Novobiocin against Susceptible and Multi-Drug Resistant Escherichia coli” (International Journal of Molecular Sciences, 2020).
Where no end group is shown, it is not given here.

Key:
[1] = system: Escherichia coli NCTC 10418; assay: microbe, parasite or virus in culture; assay type: cell-based; details: for MIC: Escherichia coli, NCTC10418, compound alone, broth microdilution, Iso-Sensitest Broth, range 128–0 μg/mL, 5 × 10^5 CFU/mL, visual read-out, duplicate, read-out: MIC, E. coli NCTC 10418
Experimental: (§1) The Minimum Inhibitory Concentrations (MIC) of compounds 1–27 were evaluated through a broth microdilution assay against susceptible strains of Escherichia coli (Gram–negative) and Staphylococcus aureus (Gram-positive).
(§2) The antibacterial activity of the peptides and peptide/antibiotic combinations were tested by the broth microdilution assay according to [24]. Escherichia coli NCTC 10,418 and Staphylococcus aureus NCTC 12,981 were obtained from the National Collection of Type Cultures, UK. Escherichia coli G69 was a clinical isolate as previously described.
(§3) Briefly, all bacterial strains were cultured on nutrient agar (Sigma-Aldrich, Gillingham, UK) plates and incubated for 24 h at 37 °C prior to MIC determination. In addition, known quantities of each test sample were dissolved in DMSO and then diluted in ISB (Iso- Sensitest Broth, Oxoid, Basingstoke, UK) to give a range concentration of 128–0 μg/mL, unless stated differently. […] Finally, the overnight cultures of each of the tested strains were suspended to an inoculum density of approximately 1.0 × 10^8 CFU/mL in phosphate buffered saline (PBS), consisting of 137 mM NaCl, 3 mM KCl, 8 mM Na2HPO4, and […] (Oxoid, Basingstoke, UK). The cell suspensions were standardized by adjusting the optical density to 0.1 at 600 nm (Thermo Scientific UV-Vis Spectrophotometer, Abingdon, UK) before being diluted 1:100 in ISB prior to inoculation
(§4) The assays were performed by microdilution using 96-well microtiter plates with a final inoculum of 5 × 10^5 CFU/mL and each sample was tested in duplicate in at least two independent experiments in order to confirm the reliability of the data. Results were determined by visual inspection of the wells and the presence of an evident opaque medium or white pellets were indicative of bacterial growth. The MIC values were recorded as the lowest concentration at which no bacterial growth was detected.
(§5) Table S4. Minimum inhibitory concentration (MIC) of synthesised peptides and of reference antibiotics
(§6) novobiocin and norfloxacin.

[2] = system: Staphylococcus aureus NCTC 12981; assay: microbe, parasite or virus in culture; assay type: cell-based; details: for MIC: Staphylococcus aureus, NCTC12981, compound alone, broth microdilution, Iso-Sensitest Broth, range 128–0 μg/mL, 5 × 10^5 CFU/mL, visual read-out, duplicate, read-out: MIC, S. aureus NCTC 12981
Experimental: as §1, §2, §3, §4, §5, §6

[3] = system: multidrug resistant clinical isolate E. coli G69; assay: Norfloxacin potentiation assay (MIC of norfloxacin with fixed concentration of peptide or PAβN); assay type: cell-based, Escherichia coli; details: broth microdilution, duplicate; for MIC of norfloxacin, E. coli G69, +128 μg/mL of peptide: fixed 128 μg/mL peptide
Experimental: (§7) In order to gather more evidence on the potential mechanisms of action, the effects of the peptides in combination with the quinolone antibiotic norfloxacin were determined. Norfloxacin is active against Gram-negative bacteria, generally achieving entry via porin channels, but is also able to enter the bacterial cell via the membrane in porin-deficient mutants. Therefore, any membrane permeability mechanism would not be expected to have a significant effect on improving the activity of norfloxacin in porin-competent strains. This is indeed what was observed (Table S5), which added weight to our hypothesis that our very short peptides may be acting as membrane permeability enhancers for novobiocin.
as §2
as §3, with “inoculation […]” for “inoculation”
(§8) The assays were performed by microdilution using 96-well microtiter plates with a final inoculum of 5 × 10^5 CFU/mL and each sample was tested in duplicate in at least two independent experiments in order to confirm the reliability of the data. Results were determined by visual inspection of the wells and the presence of an evident opaque medium or white pellets were indicative of bacterial growth. The MIC values were recorded as the lowest concentration at which no bacterial growth was detected. […]
(§9) potentiating novobiocin. Assays were performed at fixed concentration of 128 μg/mL against susceptible E. coli 10418 and multidrug resistant clinical isolate E. coli G69. Potentiation assay for norfloxacin was also performed in presence of 64 μg/mL of RND efflux pump inhibitor PAβN. All tests were repeated in […]
(§10) Compound Sequence MIC of norfloxacin (μg/mL) […]
(§11) inhibitor PaβN but no potentiation was observed, so the assay was not repeated at lower concentrations.

[4] = system: susceptible E. coli 10418; assay: as above; assay type: cell-based, Escherichia coli; details: broth microdilution, duplicate; for MIC of norfloxacin, E. coli 10418, +128 μg/mL of peptide: fixed 128 μg/mL peptide
Experimental: as §7, §2
as §3, with “inoculation […]” for “inoculation”
as §8, §9, §10, §11

[5] = system: susceptible E. coli NCTC 10418; assay: Novobiocin potentiation assay (MIC of novobiocin with fixed concentration of peptide or PAβN); assay type: cell-based, Escherichia coli; set-up: key to MIC of Novobiocin, E. coli NCTC 10418, +128 μg/mL added peptide / MIC of Novobiocin, E. coli NCTC 10418, +32 μg/mL added peptide: Non potentiating (NP) indicated no reduction in the MIC of novobiocin was observed; details: for potentiation of the MIC of novobiocin, result in words: added peptide, wording covers susceptible and multi-drug resistant strain; for MIC of Novobiocin, E. coli NCTC 10418, +128 μg/mL added peptide / MIC of Novobiocin, E. coli NCTC 10418, +32 μg/mL added peptide: Iso-Sensitest Broth, 5 × 10^5 CFU/mL, visual read-out; for MIC of Novobiocin, E. coli NCTC 10418, +128 μg/mL added peptide: fixed 128 μg/mL peptide; for MIC of Novobiocin, E. coli NCTC 10418, +32 μg/mL added peptide: fixed 32 μg/mL peptide
Experimental: (§12) The peptides were also tested in combination with antibiotics novobiocin and norfloxacin. Novobiocin has low efficacy against Gram-negative bacteria due to its hydrophobicity, giving limited cell permeability.
as §2, §3, §4

[6] = system: multi-drug resistant clinical isolate E. coli G69; assay: as above; assay type: cell-based, Escherichia coli; set-up: key to MIC of Novobiocin, E. coli G69, +32 μg/mL added peptide / MIC of Novobiocin, E. coli G69, +128 μg/mL added peptide: Non potentiating (NP) indicated no reduction in the MIC of novobiocin was observed; details: for MIC of Novobiocin, E. coli G69, +128 μg/mL added peptide / MIC of Novobiocin, E. coli G69, +32 μg/mL added peptide: Iso-Sensitest Broth, 5 × 10^5 CFU/mL, visual read-out; for MIC of Novobiocin, E. coli G69, +128 μg/mL added peptide: fixed 128 μg/mL peptide; for MIC of Novobiocin, E. coli G69, +32 μg/mL added peptide: fixed 32 μg/mL peptide
Experimental: as §12, §2, §3, §4

CCn1cc(C(=O)O)c(=O)c2cc(F)c(N3CCNCC3)cc21 [Norfloxacin, reference compound]
MIC [1]: 0.062 µg/mL | MIC [2]: 2 µg/mL | MIC ([3]; Escherichia coli, norfloxacin alone): > 128 µg/mL | MIC ([4]; Escherichia coli, E.COLI10418, norfloxacin alone): 0.062 µg/mL

CO[C@@H]1[C@@H](OC(N)=O)[C@@H](O)[C@H](Oc2ccc3c(O)c(NC(=O)c4ccc(O)c(CC=C(C)C)c4)c(=O)oc3c2C)OC1(C)C [Novobiocin]
MIC [1]: 32 µg/mL | MIC [2]: 4 µg/mL | MIC ([5]; Escherichia coli, NCTC10418, novobiocin alone, no peptide, broth microdilution, duplicate): 32 µg/mL | MIC ([6]; Escherichia coli, novobiocin alone, no peptide, broth microdilution, duplicate): > 128 µg/mL

RPWPPR [Compound 23, proline-rich cationic peptide RPWPPR, amidated at the C-terminus]
potentiation of the MIC of novobiocin, result in words [5]: shows potentiation, but only against the susceptible strain | MIC of Novobiocin, E. coli NCTC 10418, +128 μg/mL added peptide ([5]; broth microdilution, duplicate): 4 µg/mL | MIC of Novobiocin, E. coli G69, +128 μg/mL added peptide ([6]; broth microdilution, duplicate): NP | MIC of norfloxacin, E. coli G69, +128 μg/mL of peptide [3]: > 128 µg/mL | MIC of norfloxacin, E. coli 10418, +128 μg/mL of peptide [4]: 0.062 µg/mL

RWRW [Compound 5, short cationic peptide RWRW, amidated at the C-terminus]
MIC of Novobiocin, E. coli NCTC 10418, +32 μg/mL added peptide ([5]; broth microdilution, duplicate): 64 µg/mL | MIC of Novobiocin, E. coli NCTC 10418, +128 μg/mL added peptide ([5]; broth microdilution, duplicate): 2 µg/mL | MIC of Novobiocin, E. coli G69, +32 μg/mL added peptide ([6]; broth microdilution, duplicate): 64 µg/mL | MIC of Novobiocin, E. coli G69, +128 μg/mL added peptide ([6]; broth microdilution, duplicate): 16 µg/mL | MIC of norfloxacin, E. coli G69, +128 μg/mL of peptide [3]: > 128 µg/mL | MIC of norfloxacin, E. coli 10418, +128 μg/mL of peptide [4]: 0.062 µg/mL

WKPLPPR [Compound 24, proline-rich cationic peptide WKPLPPR, amidated at the C-terminus]
potentiation of the MIC of novobiocin, result in words [5]: no synergism was observed | MIC of Novobiocin, E. coli NCTC 10418, +128 μg/mL added peptide ([5]; broth microdilution, duplicate): NP | MIC of Novobiocin, E. coli G69, +128 μg/mL added peptide ([6]; broth microdilution, duplicate): NP | MIC of norfloxacin, E. coli G69, +128 μg/mL of peptide [3]: > 128 µg/mL | MIC of norfloxacin, E. coli 10418, +128 μg/mL of peptide [4]: 0.062 µg/mL

WKWKW [Compound 15, short cationic peptide WKWKW, amidated at the C-terminus]
MIC of Novobiocin, E. coli NCTC 10418, +32 μg/mL added peptide ([5]; broth microdilution, duplicate): 8 µg/mL | MIC of Novobiocin, E. coli NCTC 10418, +128 μg/mL added peptide ([5]; broth microdilution, duplicate): 4 µg/mL | potentiation of novobiocin against multi-drug resistant E. coli, result in words ([6]; E. coli G69, added peptide): restore the susceptibility | MIC of Novobiocin, E. coli G69, +32 μg/mL added peptide ([6]; broth microdilution, duplicate): 128 µg/mL | MIC of Novobiocin, E. coli G69, +128 μg/mL added peptide ([6]; broth microdilution, duplicate): 8 µg/mL | MIC of norfloxacin, E. coli G69, +128 μg/mL of peptide [3]: > 128 µg/mL | MIC of norfloxacin, E. coli 10418, +128 μg/mL of peptide [4]: 0.125 µg/mL

WRRQRW [Compound 20, short cationic peptide WRRQRW, C-terminal amide; commercial sample from ThermoFisher]
MIC of Novobiocin, E. coli NCTC 10418, +32 μg/mL added peptide ([5]; broth microdilution, duplicate): 16 µg/mL | MIC of Novobiocin, E. coli NCTC 10418, +128 μg/mL added peptide ([5]; broth microdilution, duplicate): 4 µg/mL | MIC of Novobiocin, E. coli G69, +32 μg/mL added peptide ([6]; broth microdilution, duplicate): NP | MIC of Novobiocin, E. coli G69, +128 μg/mL added peptide ([6]; broth microdilution, duplicate): 32 µg/mL | MIC of norfloxacin, E. coli G69, +128 μg/mL of peptide [3]: > 128 µg/mL | MIC of norfloxacin, E. coli 10418, +128 μg/mL of peptide [4]: 0.062 µg/mL

WRWR [Compound 4, short cationic peptide WRWR, amidated at the C-terminus]
MIC of Novobiocin, E. coli NCTC 10418, +32 μg/mL added peptide ([5]; broth microdilution, duplicate): 32 µg/mL | MIC of Novobiocin, E. coli NCTC 10418, +128 μg/mL added peptide ([5]; broth microdilution, duplicate): 2 µg/mL | MIC of Novobiocin, E. coli G69, +128 μg/mL added peptide ([6]; broth microdilution, duplicate): NP | MIC of norfloxacin, E. coli G69, +128 μg/mL of peptide [3]: > 128 µg/mL | MIC of norfloxacin, E. coli 10418, +128 μg/mL of peptide [4]: 0.062 µg/mL

WRWRW-NH2 [Compound 6]
MIC, E. coli NCTC 10418 ([1]; NCTC 10418, 24 h): 64 µg/mL | MIC, S. aureus NCTC 12981 ([2]; NCTC 12981, 24 h): 64 µg/mL
